Several values for one entry are separate records, joined by “and”; a condition that tells them apart may be missing. Identical values can stand only once.

Experimental findings from article PMC8213057, “Targeting ALK2: An Open Science Approach to Developing Therapeutics for the Treatment of Diffuse Intrinsic Pontine Glioma” (Journal of Medicinal Chemistry, 2020) are described below.

Assay [1] has as its target c-MET (Homo sapiens, UniProt P08581). Kind of assay: biochemical. The settings on record: read-out: % enzyme activity, 1 μM; Run 1, Run 2.
In assay [2] the target is T1, IKKe/IKBKE (Homo sapiens, UniProt Q14164).
T1 sequence (Q14164 1-716): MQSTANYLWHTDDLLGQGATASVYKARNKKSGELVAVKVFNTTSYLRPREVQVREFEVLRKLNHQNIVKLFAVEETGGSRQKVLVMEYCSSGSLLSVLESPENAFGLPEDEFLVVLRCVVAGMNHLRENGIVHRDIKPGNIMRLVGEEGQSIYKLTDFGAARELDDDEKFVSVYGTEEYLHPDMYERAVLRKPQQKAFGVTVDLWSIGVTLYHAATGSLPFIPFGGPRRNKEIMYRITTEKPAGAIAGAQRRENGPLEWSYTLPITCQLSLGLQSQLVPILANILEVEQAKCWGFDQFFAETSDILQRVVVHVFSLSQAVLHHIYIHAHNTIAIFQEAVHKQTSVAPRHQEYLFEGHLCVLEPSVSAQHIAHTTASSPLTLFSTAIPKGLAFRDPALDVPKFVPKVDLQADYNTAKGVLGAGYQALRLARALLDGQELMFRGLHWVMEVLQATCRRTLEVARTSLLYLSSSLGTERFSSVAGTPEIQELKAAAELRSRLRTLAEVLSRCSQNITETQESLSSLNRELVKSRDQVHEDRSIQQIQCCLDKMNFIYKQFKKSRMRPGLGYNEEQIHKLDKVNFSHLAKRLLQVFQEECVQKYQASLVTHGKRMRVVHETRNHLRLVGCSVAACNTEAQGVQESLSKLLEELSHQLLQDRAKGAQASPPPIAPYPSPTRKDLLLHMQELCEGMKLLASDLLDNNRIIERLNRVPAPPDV
Description: biochemical. The settings on record: read-out: % enzyme activity, 1 μM; Run 1, Run 2.

In assay [3] the target is T2, PDK1/PDPK1 (Homo sapiens, UniProt O15530).
T2 sequence (O15530 1-556): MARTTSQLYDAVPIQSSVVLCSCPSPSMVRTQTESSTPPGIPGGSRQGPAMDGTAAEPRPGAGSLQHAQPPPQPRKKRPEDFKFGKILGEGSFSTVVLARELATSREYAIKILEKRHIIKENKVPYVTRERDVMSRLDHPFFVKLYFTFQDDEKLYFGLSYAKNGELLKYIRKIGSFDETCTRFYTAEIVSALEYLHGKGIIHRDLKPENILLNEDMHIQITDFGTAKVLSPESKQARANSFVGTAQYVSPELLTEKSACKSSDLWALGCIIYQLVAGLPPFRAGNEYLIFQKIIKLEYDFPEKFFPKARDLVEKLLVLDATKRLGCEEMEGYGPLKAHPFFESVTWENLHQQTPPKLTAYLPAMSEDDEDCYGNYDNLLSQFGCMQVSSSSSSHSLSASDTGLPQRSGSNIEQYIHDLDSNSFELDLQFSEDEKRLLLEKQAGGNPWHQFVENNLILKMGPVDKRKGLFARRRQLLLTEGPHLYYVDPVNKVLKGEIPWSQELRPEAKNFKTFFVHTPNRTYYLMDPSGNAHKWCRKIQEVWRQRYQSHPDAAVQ
Kind of assay: biochemical. The settings on record: read-out: % enzyme activity, 1 μM; Run 1, Run 2.

For assay [4], the target named is COT1/MAP3K8 (Homo sapiens, UniProt P41279). The settings on record: 1 μM; Run 1, Run 2.
For assay [5], the target named is MELK (Homo sapiens, UniProt Q14680). The settings on record: 1 μM; Run 1, Run 2.
The target of assay [6] is T3, NLK (Homo sapiens, UniProt Q9UBE8).
T3 construct: purchased Reaction Biology Corporation
T3 sequence (Q9UBE8 1-527): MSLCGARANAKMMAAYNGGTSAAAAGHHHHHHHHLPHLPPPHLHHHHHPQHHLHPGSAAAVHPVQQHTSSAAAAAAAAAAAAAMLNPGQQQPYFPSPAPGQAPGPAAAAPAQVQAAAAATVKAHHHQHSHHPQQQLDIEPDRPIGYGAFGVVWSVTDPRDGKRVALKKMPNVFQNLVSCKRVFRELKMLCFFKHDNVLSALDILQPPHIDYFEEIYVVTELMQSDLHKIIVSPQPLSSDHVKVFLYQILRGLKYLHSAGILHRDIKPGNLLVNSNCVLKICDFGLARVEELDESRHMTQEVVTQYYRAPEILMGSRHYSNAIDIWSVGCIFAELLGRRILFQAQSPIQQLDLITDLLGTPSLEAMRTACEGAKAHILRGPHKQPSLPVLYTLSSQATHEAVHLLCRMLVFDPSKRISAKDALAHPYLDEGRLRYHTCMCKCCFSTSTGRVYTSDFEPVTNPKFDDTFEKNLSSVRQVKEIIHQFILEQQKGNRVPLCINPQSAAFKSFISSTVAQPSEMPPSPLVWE
Description: 375-member kinase panel. Type of assay: biochemical. The settings on record: Run 1, Run 2; for % enzyme activity: 1 μM; for remaining activity at 1 µM: read-out: % enzyme activity, 1 μM.

Assay [7] addresses LOK/STK10 (Homo sapiens, UniProt O94804). Kind of assay: biochemical. To be noted: read-out: % enzyme activity, 1 μM; Run 1, Run 2.
Assay [8] deals with ALK2/ACVR1.
Assay [9] addresses T4, PRKX (Homo sapiens, UniProt P51817).
T4 sequence (P51817 1-358): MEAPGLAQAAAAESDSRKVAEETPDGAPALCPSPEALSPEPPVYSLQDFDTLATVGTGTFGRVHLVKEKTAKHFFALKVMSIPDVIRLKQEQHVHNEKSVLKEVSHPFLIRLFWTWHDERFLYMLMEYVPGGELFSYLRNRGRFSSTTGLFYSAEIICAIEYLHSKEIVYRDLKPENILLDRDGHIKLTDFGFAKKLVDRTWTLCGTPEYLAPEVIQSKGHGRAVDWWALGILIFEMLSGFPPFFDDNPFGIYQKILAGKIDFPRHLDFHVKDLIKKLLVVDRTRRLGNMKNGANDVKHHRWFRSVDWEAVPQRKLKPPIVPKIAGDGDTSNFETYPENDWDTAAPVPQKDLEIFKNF
Description: biochemical. The settings on record: read-out: % enzyme activity, 1 μM; Run 1, Run 2.

Chain of LOK/STK10 (O94804 whole entry): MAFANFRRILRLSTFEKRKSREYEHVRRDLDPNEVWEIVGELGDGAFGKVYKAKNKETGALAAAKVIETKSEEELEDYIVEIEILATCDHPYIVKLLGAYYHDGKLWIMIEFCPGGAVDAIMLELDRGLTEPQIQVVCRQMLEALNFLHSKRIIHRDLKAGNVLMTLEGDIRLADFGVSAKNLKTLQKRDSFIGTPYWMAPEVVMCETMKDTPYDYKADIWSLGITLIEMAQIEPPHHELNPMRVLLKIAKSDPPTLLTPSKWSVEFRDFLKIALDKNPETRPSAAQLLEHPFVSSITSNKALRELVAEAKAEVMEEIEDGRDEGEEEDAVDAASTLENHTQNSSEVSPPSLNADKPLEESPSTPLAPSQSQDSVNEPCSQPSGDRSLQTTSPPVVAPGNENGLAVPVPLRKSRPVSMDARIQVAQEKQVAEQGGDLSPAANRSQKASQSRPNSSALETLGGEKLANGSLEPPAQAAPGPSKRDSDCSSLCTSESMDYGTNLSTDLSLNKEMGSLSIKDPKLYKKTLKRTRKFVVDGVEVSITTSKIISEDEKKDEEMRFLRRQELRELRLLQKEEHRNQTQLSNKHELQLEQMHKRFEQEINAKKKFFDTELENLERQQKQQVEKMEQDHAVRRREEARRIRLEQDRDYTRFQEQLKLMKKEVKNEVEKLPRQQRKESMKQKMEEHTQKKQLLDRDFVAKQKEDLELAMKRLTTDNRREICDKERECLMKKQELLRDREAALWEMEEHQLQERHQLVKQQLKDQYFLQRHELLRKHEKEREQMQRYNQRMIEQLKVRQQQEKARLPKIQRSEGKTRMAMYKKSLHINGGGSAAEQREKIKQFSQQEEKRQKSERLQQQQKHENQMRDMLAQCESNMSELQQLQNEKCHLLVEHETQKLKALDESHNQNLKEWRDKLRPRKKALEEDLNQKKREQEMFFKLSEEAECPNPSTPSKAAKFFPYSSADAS
Chain of c-MET (P08581 25-1390): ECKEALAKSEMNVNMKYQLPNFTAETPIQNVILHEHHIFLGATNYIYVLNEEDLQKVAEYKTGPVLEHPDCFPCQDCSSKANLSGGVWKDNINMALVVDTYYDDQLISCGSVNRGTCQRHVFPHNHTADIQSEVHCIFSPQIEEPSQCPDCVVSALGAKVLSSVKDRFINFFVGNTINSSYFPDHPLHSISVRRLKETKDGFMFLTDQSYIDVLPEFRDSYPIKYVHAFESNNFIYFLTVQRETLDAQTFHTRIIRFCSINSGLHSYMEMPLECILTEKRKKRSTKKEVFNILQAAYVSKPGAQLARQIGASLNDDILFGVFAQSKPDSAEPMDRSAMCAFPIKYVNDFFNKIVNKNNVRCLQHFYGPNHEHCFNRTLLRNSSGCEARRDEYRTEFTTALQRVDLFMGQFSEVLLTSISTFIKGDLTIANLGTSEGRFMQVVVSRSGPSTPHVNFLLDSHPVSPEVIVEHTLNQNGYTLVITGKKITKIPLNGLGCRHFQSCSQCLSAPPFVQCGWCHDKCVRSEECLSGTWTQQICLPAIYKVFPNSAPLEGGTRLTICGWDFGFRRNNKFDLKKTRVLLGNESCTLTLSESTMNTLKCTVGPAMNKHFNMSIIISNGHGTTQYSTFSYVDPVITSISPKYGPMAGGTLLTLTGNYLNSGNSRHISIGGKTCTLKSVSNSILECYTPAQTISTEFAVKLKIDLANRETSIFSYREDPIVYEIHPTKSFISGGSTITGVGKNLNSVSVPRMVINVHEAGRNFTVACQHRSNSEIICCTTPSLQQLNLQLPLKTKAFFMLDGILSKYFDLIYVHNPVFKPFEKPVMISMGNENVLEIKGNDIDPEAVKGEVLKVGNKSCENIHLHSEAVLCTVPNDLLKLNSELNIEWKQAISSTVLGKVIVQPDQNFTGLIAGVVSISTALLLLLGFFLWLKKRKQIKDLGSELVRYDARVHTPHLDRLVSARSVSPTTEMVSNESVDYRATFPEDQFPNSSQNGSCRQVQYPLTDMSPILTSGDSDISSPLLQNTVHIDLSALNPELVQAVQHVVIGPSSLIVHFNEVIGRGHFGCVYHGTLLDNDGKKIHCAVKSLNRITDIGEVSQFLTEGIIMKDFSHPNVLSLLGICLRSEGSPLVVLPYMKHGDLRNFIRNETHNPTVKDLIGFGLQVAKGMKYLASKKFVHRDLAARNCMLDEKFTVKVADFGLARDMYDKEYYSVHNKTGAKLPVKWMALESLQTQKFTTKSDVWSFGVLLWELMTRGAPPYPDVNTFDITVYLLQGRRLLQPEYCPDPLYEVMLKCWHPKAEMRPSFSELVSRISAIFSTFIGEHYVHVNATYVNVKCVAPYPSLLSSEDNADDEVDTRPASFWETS
Chain of COT1/MAP3K8 (P41279 whole entry): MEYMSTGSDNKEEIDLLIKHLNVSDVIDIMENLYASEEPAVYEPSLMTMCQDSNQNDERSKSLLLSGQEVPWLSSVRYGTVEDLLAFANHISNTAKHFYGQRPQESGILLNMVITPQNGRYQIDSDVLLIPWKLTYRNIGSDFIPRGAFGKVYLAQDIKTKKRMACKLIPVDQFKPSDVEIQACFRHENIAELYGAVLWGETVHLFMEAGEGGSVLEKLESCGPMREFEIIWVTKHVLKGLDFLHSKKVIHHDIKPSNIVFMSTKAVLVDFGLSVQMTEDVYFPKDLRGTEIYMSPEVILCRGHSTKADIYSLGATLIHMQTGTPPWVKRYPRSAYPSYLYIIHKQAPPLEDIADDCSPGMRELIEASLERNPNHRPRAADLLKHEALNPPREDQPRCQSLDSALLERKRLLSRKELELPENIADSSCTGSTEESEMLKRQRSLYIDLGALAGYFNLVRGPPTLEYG
Chain of MELK (Q14680 whole entry): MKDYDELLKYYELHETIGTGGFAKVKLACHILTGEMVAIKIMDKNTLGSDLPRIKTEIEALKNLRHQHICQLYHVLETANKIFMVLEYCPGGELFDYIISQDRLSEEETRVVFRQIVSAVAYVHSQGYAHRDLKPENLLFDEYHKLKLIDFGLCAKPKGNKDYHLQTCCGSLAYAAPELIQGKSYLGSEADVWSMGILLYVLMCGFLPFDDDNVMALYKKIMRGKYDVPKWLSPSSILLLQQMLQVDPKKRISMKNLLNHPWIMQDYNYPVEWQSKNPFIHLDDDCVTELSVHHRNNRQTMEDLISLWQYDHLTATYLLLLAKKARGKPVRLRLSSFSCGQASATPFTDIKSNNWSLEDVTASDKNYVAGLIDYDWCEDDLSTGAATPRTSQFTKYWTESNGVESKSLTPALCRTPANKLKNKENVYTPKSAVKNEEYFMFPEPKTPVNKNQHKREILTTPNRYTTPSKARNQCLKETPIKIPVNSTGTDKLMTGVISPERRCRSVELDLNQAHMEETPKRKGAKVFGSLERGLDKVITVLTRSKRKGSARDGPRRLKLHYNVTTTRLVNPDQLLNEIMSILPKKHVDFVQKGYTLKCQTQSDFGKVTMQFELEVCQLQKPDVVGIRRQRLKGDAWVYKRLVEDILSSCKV

On to `COc1cc(-c2cncc(-c3ccc(N4C[C@@H](C)N(C)[C@@H](C)C4)cc3)c2C)cc(F)c1C(N)=O` [Compound 26c, 2-Fluoro-6-methoxy-4-(4-methyl-5-(4-((3R,5S)-3,4,5-trimethylpiperazin-1-yl)phenyl)pyridin-3-yl)benzamide], for which the remaining activity at 1 µM is 107% in assay [1]; 96.7% in assay [2]; 95.9% in assay [3]; 50.4% in [6]; 68.7% in assay [7]; 91.3% in assay [9]. Moreover, the entries for the “% enzyme activity” value in assay [4], in assay [5] and in assay [6] were 93.89%, 99.30% and 47.74%, respectively. Moreover, the % enzyme activity at 1 μM in assay [8] is 13.7% and 11.7%.
As for `COc1cc(-c2cncc(-c3ccc(N4CCN(C)CC4)cc3)c2C)cc(F)c1C(N)=O` [Compound 26a, 2-Fluoro-6-methoxy-4-(4-methyl-5-(4-(4-methylpiperazin-1-yl)phenyl)pyridin-3-yl)benzamide], the remaining activity at 1 µM in [1] came to 100%; in assay [2], 91.1%; in assay [3] it was 94.3%; in assay [6] it was 22%; in assay [7], 51.8%; in [9] it was 99.9%. Also, the “% enzyme activity” value came to 90.60% in assay [4], 98.82% in [5] and 20.81% in assay [6]. Besides, the % enzyme activity at 1 μM in assay [8] is 9.92% and 8.63%.
